Source: patent US7897602B2, “Indolinone compounds as kinase inhibitors” (Development Center for Biotechnology, priority 2009, dated 2011)

Assays:
Assay type in all cases: biochemical
[1] = target: T1, Aurora A kinase (Homo sapiens, UniProt O14965); test: Aurora A kinase assay ([γ-33P]ATP, CHOCKtide substrate); conditions: 1.0 μM test compound
T1 construct: purchased Upstate
T1 sequence (O14965 1-403): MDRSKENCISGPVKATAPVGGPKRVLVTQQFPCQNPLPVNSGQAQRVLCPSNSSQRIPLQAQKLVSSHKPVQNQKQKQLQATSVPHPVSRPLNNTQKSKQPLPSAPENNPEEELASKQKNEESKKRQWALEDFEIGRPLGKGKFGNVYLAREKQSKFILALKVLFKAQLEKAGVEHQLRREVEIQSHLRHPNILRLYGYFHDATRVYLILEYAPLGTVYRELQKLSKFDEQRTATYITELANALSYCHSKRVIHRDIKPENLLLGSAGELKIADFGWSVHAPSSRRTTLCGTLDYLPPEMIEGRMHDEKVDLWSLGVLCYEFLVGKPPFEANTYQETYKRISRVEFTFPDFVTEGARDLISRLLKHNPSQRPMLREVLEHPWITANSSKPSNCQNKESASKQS
Outline: (§1)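 Radiometric filter-binding format: 33P incorporation into CHOCKtide counted after acid stop and filtration. Reactions ran 30 min at 33 °C, Aurora A with 10 μM ATP, Aurora B with 40 μM ATP. IC50 taken as concentration giving half-maximal kinase inhibition.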

[2] = target: T2, Aurora B kinase (Homo sapiens, UniProt Q96GD4); test: Aurora B kinase assay ([γ-33P]ATP, CHOCKtide substrate); conditions: 1.0 μM test compound
T2 construct: purchased Cell signaling
Outline: as §1

[3] = target: T3, VEGFR2 kinase (Homo sapiens, UniProt P35968); test: VEGFR2 kinase assay (33P incorporation into Poly(Glu-Tyr)); conditions: 500 nM test compound; read-out: Inhibition at 500 nM (%) VEGFr-2
T3 construct: recombinant N-terminal 6×His-tagged VEGFR2 kinase domain construct expressed by baculovirus; 6xHis (N); made in house
Method: Inhibition of VEGFR2 kinase activity by compounds disclosed herein was quantified by measuring the amount of [^33P] incorporated into the substrate in the presence of a test compound. Specifically, a reaction mixture with a final volume of 25 μL and containing 6.25 ng of VEGFR2 kinase (obtained by purifying recombinant N-terminal 6×His-tagged VEGFR2 kinase domain construct expressed by baculovirus), 5 μg of substrate (Poly (Glu-Tyr, 4:1, Sigma)), kinase reaction buffer (20 mM MOPS pH 7.0, 1 mM EDTA, 5% glycerol, 0.01% Brij-35, 0.1% β-mercaptoethanol, 1 mg/mL BSA, 100 μM ATP, 0.1 μCi per well [^33P]-γ-ATP (2,500-3,000 Ci/mmol), and 500 nM test compound (final concentration of DMSO was 4%) or 4% DMSO alone (as the control sample), was incubated at 30° C. for 30 minutes. The reaction was then stopped by adding 5 μL of 3% phosphoric acid solution. The resultant solution was transferred to and harvested by a filter plate (UniFilter-96 GF/B, PerkinElmer). The filter plate was then washed 20 times with d.d. H2O for 5 min followed by the addition of 30 μL of MicroScint™-20 Cocktail (PerkinElmer). After the plate was sealed, the retained radioactivity on the filter was counted using a TopCount scintillation detector (PerkinElmer). The percentage of inhibition rate of the test compound was calculated by dividing the retained radioactivity of the test sample with the retained radioactivity of the control sample and shown in Table 3.

[4] = target: T4, PDGFR-β kinase (Homo sapiens, UniProt P09619); test: PDGFR-β kinase assay (33P incorporation into Poly(Glu-Tyr)); conditions: 500 nM test compound
T4 construct: recombinant N-terminal 6×His-tagged PDGFR-β kinase domain construct expressed by baculovirus; 6xHis (N); made in house
Method: Inhibition of PDGFR-β kinase activity by compounds disclosed herein was quantified by measuring the amount of [^33P] incorporated into the substrate in the presence of a test compound. Briefly, a reaction mixture of 25 μL final volume containing 55 ng of PDGFR-β kinase (obtained by purifying recombinant N-terminal 6×His-tagged PDGFR-β kinase domain construct expressed by baculovirus), 2.5 μg of the substrate (Poly (Glu-Tyr, 4:1, Sigma)), kinase reaction buffer (20 mM MOPS pH 7.0, 1 mM EDTA, 5% glycerol, 0.01% Brij-35, 0.1% β-mercaptoethanol, 1 mg/mL BSA, 2 mM MnCl2, 30 μM ATP, 0.1 μCi per well [^33P]-γ-ATP (2,500-3,000 Ci/mmol)), and a test compound (500 nM, diluted with 4% DMSO) or DMSO (as the control) was incubated at 30° C. for 30 minutes. The reaction was stopped by adding 5 μL of 3% phosphoric acid solution. The resultant reaction solution was then harvested onto a filter plate (UniFilter-96 GF/B, PerkinElmer), washed 20 times for 5 min with d.d. H2O, and followed by the addition of 30 μL of MicroScint™-20 Cocktail (PerkinElmer). The plate was then sealed and counted using a TopCount scintillation detector (PerkinElmer). The percentage of inhibition rate of the test compound was calculated by dividing the retained radioactivity of the test sample with the retained radioactivity of the control sample and shown in Table 3.

[5] = target: T5, Flt3 kinase (Homo sapiens, UniProt P36888); test: Flt3 kinase assay (33P incorporation into Poly(Glu-Tyr)); conditions: 100 nM test compound; read-out: Inhibition at 100 nM (%) Flt-3
T5 construct: recombinant N-terminal 6×His-tagged Flt3 kinase domain construct expressed from baculovirus; 6xHis (N); made in house
T5 sequence (P36888 610-943 limits assumed): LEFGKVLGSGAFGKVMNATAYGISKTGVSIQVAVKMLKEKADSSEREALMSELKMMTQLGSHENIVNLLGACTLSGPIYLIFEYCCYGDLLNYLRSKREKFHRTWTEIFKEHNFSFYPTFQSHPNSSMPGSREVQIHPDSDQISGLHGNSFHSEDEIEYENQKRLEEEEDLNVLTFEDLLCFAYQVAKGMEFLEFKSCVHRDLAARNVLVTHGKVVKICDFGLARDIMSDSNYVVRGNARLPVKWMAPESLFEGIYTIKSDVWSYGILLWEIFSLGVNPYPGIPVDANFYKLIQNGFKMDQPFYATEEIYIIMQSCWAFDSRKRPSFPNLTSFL
Method: Inhibition of Flt3 kinase activity by compounds disclosed herein was quantified by measuring the amount of [^33P] incorporated into the substrate in the presence of a test compound. Briefly, a reaction mixture of 25 μL final volume containing 5 ng of Flt3 kinase (obtained by purifying recombinant N-terminal 6×His-tagged Flt3 kinase domain construct expressed from baculovirus), 5 μg of the substrate (Poly (Glu-Tyr, 4:1, Sigma)), kinase reaction buffer (20 mM MOPS pH 7.0, 1 mM EDTA, 5% glycerol, 0.01% Brij-35, 0.1% β-mercaptoethanol, 1 mg/mL BSA, 100 μM ATP, 0.1 μCi per well [^33P]-γ-ATP (2,500-3,000 Ci/mmol)), and a test compound (100 nM, diluted with 4% DMSO) or DMSO (as the control) was incubated at 30° C. for 30 minutes. The reaction was stopped by adding 5 μL of 3% phosphoric acid solution. The resultant reaction solution was then harvested onto a filter plate (UniFilter-96 GF/B, PerkinElmer), washed 20 times for 5 min with d.d. H2O, and followed by the addition of 30 μL of MicroScint™-20 Cocktail (PerkinElmer). The plate was then sealed and counted using a TopCount scintillation detector (PerkinElmer). The percentage of inhibition rate of the test compound was calculated by dividing the retained radioactivity of the test sample with the retained radioactivity of the control sample and shown in Table 3.

[6] = target: T6, c-Met kinase (Homo sapiens, UniProt P08581); test: c-Met kinase assay (33P incorporation into Poly(Glu-Tyr)); conditions: 500 nM test compound
T6 construct: recombinant N-terminal 6×His-tagged c-Met kinase domain construct expressed from baculovirus; 6xHis (N); made in house
Outline: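 Single-concentration test (500 nM compound) at 30° C for 30 min, pH 7.0 MOPS buffer with 100 μM ATP and [33P]-γ-ATP. Enzyme was baculovirus-expressed 6×His c-Met kinase domain (5 ng), substrate Poly(Glu-Tyr) 4:1. Inhibition percentage derived from filter-bound counts relative to DMSO control.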

T2 sequence (Q96GD4 whole entry): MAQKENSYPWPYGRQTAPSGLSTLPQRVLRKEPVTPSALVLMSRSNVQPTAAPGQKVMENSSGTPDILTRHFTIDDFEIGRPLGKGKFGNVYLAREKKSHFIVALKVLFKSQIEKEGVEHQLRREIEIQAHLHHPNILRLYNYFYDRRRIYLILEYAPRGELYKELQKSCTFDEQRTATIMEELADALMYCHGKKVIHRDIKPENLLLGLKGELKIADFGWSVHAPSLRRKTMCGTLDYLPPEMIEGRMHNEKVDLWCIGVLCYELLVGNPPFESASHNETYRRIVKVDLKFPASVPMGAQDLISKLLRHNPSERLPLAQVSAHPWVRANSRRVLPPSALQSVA
T6 sequence (P08581 1078-1345 limits assumed): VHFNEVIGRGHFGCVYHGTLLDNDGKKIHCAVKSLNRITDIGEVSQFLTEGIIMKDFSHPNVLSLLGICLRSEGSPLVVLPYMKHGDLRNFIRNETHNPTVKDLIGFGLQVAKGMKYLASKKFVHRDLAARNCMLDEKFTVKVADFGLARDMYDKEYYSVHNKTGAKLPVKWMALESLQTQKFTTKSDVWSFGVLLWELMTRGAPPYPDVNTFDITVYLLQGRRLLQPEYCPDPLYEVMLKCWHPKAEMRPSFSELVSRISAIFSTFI
T4 sequence (P09619 600-962 limits assumed): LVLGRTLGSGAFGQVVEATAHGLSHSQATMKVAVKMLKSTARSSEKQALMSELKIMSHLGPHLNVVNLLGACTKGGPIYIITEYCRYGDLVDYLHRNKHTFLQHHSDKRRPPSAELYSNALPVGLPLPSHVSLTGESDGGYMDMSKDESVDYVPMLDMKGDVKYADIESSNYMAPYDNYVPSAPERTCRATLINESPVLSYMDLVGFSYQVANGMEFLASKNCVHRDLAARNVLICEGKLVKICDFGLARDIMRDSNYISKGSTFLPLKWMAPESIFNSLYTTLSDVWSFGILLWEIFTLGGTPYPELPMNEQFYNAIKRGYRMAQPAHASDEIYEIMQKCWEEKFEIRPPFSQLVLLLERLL
T3 sequence (P35968 834-1162 limits assumed): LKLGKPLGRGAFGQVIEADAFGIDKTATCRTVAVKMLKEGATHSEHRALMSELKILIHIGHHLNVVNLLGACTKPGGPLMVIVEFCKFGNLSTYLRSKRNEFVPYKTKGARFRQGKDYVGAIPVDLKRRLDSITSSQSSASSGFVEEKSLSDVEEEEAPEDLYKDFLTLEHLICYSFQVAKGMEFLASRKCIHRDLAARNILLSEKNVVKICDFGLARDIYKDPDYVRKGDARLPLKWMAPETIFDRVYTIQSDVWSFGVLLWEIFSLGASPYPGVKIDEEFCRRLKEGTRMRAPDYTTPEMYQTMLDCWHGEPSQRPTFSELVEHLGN

| inhibition at 1 µM [1] [%] | inhibition at 1 µM [2] [%] | inhibition at 0.5 µM [3] [%] | inhibition at 0.5 µM [4] [%] | inhibition at 0.1 µM [5] [%] | inhibition at 0.5 µM [6] [%] | Structure (SMILES) |
| --- | --- | --- | --- | --- | --- | --- |
| 27.1 | 2.4 | 44.8 | 7.9 | 11.8 |  | O=C(O)CCc1c(/C=C2\C(=O)Nc3ccc(NC(=O)c4ccc([N+](=O)[O-])cc4)cc32)[nH]c2c1C(=O)CCC2 [DCB-70142, (Z)-3-(2-((5-(4-nitrobenzamido)-2-oxoindolin-3-ylidene)methyl)-4-oxo-4,5,6,7-tetrahydro-1H-indol-3-yl)propanoic acid] |
| 8.9 | 18 |  |  | 17.1 | 0.2 | CCOC(=O)CCc1c(/C=C2\C(=O)Nc3cc(-c4ccc(O)cc4)ccc32)[nH]c2c1C(=O)CCCC2 [DCB-70150, (Z)-ethyl 3-(2-((6-(4-hydroxyphenyl)-2-oxoindolin-3-ylidene)methyl)-4-oxo-1,4,5,6,7,8-hexahydrocyclohepta[b]pyrrol-3-yl)propanoate] |
| 37.2 | 23.6 |  |  | 42.2 | -6.5 | O=C(O)CCc1c(/C=C2\C(=O)Nc3cc(-c4ccc(O)cc4)ccc32)[nH]c2c1C(=O)CCCC2 [DCB-70151, (Z)-3-(2-((6-(4-hydroxyphenyl)-2-oxoindolin-3-ylidene)methyl)-4-oxo-1,4,5,6,7,8-hexahydrocyclohepta[b]pyrrol-3-yl)propanoic acid] |
